Laboratory results as given in PMC7736581, “Activation of the IRE1 RNase through remodeling of the kinase front pocket by ATP-competitive ligands” (Nature Communications, 2020).

Columns and labels:
Assay in all cases: biochemical
Parameters in all cases: Invitrogen kinase panel: Z'Lyte activity (ATP at Km) or LanthaScreen competitive ATP-site binding, percent inhibition
AKT2 = AKT2 (Homo sapiens, UniProt P31751)
ALK2 = target: T1, ALK2 (Homo sapiens, UniProt Q04771)
T1 construct: gene ACVR1

Bmx = Bmx (Homo sapiens, UniProt P51813)
CK1_epsilon1 = target: T2, CK1_epsilon1 (Homo sapiens, UniProt P49674)
T2 construct: gene CSNK1E; epsilon 1

DCAMKL2 = target: T3, DCAMKL2 (Homo sapiens, UniProt Q8N568)
T3 construct: gene DCLK2

DMPK = DMPK (Homo sapiens, UniProt Q09013)
DRAK1 = target: T4, DRAK1 (Homo sapiens, UniProt Q9UEE5)
T4 construct: gene STK17A

DYRK4 = DYRK4 (Homo sapiens, UniProt Q9NR20)
GRK6 = GRK6 (Homo sapiens, UniProt P43250)
IRAK1 = IRAK1 (Homo sapiens, UniProt P51617)
JNK3 = target: T5, JNK3 (Homo sapiens, UniProt P53779)
T5 construct: gene MAPK10

LIMK1 = LIMK1 (Homo sapiens, UniProt P53667)
LRRK2 = LRRK2 (Homo sapiens, UniProt Q5S007)
MAPKAPK2 = MAPKAPK2 (Homo sapiens, UniProt P49137)
MAPKAPK3 = MAPKAPK3 (Homo sapiens, UniProt Q16644)
MRCK_alpha = target: T6, MRCK_alpha (Homo sapiens, UniProt Q5VT25)
T6 construct: gene CDC42BPA

MYLK3(caMLCK) = target: T7, MYLK3(caMLCK) (Homo sapiens, UniProt Q32MK0)
T7 construct: caMLCK

PAK3 = PAK3 (Homo sapiens, UniProt O75914)
PASK = PASK (Homo sapiens, UniProt Q96RG2)
PKC_epsilon = target: T8, PKC_epsilon (Homo sapiens, UniProt Q02156)
T8 construct: gene PRKCE

PRK1 = target: T9, PRK1 (Homo sapiens, UniProt Q16512)
T9 construct: gene PKN1

TNK2 = TNK2 (Homo sapiens, UniProt Q07912)
ZIPK = target: T10, ZIPK (Homo sapiens, UniProt O43293)
T10 construct: gene DAPK3

eEF-2K = target: T11, eEF-2K (Homo sapiens, UniProt O00418)
T11 construct: gene EEF2K
T11 sequence (O00418 whole entry): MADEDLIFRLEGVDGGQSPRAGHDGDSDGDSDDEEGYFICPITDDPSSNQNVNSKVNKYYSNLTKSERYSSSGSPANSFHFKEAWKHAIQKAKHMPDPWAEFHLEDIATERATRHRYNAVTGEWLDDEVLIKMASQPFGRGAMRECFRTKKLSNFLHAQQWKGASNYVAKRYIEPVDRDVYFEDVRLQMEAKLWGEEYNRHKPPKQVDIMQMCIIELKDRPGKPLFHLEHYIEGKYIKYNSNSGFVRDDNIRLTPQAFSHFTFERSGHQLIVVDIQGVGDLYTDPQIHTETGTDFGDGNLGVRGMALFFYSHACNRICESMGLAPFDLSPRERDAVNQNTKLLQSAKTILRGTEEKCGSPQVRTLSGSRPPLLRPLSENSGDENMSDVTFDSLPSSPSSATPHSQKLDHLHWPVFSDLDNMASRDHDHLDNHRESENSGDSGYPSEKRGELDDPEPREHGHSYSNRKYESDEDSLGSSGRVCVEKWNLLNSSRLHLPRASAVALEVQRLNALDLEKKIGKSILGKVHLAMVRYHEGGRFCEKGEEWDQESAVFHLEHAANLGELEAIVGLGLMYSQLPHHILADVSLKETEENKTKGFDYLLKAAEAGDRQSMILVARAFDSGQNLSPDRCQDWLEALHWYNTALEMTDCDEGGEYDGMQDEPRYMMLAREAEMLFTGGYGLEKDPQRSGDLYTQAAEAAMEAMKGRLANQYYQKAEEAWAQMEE

Bmx, sequence (P51813 whole entry): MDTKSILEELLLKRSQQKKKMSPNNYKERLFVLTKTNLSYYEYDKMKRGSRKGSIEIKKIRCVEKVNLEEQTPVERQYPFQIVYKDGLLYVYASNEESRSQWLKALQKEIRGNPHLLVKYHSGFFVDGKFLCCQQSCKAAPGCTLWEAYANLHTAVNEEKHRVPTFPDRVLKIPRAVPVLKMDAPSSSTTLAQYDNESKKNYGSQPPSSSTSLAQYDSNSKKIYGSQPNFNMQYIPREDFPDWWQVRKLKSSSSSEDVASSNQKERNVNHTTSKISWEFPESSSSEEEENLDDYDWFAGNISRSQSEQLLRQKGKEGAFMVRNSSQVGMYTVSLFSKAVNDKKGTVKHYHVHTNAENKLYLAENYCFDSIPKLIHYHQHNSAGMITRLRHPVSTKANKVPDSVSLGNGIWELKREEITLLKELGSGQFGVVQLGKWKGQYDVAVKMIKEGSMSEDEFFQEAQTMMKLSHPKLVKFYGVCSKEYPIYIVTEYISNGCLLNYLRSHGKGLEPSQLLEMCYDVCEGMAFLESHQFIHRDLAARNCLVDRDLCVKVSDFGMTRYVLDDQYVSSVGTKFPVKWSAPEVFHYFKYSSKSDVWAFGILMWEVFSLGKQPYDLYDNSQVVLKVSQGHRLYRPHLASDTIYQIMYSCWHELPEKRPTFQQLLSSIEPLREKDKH
MAPKAPK2, sequence (P49137 whole entry): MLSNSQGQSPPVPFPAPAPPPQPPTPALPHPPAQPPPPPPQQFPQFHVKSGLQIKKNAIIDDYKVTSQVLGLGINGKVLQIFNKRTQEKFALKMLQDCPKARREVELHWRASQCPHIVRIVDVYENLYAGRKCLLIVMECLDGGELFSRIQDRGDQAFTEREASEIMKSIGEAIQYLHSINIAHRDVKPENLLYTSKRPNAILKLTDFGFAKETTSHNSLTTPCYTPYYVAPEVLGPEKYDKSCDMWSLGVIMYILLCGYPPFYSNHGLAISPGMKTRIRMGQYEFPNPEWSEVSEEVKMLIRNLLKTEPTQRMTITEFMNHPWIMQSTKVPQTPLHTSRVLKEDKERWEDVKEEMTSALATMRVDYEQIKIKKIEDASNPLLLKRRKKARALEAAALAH
GRK6, sequence (P43250 whole entry): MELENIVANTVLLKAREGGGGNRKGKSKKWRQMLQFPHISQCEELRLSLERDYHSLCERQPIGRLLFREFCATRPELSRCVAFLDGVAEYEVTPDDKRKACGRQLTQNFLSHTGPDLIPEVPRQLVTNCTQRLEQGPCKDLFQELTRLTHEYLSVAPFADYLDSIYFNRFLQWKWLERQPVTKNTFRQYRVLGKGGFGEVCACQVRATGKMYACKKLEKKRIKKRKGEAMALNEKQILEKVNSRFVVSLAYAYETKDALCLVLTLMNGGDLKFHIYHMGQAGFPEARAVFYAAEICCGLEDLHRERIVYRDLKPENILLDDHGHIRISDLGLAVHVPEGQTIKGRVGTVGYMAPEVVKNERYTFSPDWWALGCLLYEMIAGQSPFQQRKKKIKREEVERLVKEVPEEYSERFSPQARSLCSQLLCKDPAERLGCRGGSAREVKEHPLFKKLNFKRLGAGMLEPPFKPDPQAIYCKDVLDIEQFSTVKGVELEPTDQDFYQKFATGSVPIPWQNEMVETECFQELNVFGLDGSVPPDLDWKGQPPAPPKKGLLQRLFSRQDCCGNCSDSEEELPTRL
PASK, sequence (Q96RG2 whole entry): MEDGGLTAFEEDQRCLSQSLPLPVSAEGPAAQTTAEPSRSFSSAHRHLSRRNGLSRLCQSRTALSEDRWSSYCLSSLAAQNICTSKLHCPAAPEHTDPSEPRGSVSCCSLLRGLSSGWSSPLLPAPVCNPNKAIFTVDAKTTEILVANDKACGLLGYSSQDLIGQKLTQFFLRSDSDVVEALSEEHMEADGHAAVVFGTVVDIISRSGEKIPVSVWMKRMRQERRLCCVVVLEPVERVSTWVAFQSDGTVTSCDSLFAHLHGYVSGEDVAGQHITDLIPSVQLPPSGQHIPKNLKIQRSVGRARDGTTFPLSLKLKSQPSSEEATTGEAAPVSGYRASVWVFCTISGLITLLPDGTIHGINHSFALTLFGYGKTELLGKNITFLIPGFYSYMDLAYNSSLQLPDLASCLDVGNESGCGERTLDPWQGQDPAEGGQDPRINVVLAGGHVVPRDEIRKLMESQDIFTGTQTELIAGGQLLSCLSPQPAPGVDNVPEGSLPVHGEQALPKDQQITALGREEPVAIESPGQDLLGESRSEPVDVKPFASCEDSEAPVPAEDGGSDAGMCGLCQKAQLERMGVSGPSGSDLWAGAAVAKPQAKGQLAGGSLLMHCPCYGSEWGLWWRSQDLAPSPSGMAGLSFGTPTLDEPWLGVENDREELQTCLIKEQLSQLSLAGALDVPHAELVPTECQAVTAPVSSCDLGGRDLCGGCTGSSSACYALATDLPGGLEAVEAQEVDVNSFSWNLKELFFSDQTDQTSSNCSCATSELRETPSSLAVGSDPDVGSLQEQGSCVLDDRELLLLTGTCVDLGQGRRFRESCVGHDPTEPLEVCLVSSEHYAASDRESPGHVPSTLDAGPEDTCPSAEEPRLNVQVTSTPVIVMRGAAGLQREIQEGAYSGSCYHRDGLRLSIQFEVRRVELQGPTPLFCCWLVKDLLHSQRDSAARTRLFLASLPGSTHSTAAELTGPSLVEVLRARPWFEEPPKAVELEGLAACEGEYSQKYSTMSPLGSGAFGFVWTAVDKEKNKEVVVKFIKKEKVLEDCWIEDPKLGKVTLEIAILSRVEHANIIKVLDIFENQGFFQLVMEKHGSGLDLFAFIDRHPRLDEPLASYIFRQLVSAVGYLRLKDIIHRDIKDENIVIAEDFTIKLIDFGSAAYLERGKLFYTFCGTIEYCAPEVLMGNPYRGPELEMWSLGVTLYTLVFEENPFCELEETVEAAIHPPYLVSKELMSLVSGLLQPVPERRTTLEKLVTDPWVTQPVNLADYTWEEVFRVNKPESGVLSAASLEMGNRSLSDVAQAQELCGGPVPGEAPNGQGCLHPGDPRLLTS
T2 sequence (P49674 whole entry): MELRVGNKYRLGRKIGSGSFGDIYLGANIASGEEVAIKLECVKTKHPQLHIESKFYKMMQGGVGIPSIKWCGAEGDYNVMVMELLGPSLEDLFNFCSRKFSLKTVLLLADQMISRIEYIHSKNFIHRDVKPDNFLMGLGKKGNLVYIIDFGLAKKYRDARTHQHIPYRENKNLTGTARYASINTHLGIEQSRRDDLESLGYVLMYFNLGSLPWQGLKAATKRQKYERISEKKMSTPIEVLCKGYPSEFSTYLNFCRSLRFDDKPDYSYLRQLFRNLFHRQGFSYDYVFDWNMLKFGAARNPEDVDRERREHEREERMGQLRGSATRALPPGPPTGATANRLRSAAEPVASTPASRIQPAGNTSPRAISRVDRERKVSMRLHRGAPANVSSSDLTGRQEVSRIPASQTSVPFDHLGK
T1 sequence (Q04771 whole entry): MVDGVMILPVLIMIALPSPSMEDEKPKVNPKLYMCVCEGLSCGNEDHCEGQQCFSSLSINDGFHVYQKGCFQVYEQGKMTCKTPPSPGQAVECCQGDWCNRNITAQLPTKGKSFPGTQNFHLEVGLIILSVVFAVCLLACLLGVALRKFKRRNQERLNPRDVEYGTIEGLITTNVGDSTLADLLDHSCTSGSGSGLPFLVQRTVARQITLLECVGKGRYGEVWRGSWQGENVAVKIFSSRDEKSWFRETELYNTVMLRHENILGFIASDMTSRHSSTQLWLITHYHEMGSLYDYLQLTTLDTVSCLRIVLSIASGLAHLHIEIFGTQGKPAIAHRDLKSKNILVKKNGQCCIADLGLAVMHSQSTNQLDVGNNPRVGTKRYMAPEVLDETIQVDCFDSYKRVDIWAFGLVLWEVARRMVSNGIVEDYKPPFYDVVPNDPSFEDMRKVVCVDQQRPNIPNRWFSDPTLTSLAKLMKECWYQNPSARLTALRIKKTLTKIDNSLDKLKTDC
T4 sequence (Q9UEE5 whole entry): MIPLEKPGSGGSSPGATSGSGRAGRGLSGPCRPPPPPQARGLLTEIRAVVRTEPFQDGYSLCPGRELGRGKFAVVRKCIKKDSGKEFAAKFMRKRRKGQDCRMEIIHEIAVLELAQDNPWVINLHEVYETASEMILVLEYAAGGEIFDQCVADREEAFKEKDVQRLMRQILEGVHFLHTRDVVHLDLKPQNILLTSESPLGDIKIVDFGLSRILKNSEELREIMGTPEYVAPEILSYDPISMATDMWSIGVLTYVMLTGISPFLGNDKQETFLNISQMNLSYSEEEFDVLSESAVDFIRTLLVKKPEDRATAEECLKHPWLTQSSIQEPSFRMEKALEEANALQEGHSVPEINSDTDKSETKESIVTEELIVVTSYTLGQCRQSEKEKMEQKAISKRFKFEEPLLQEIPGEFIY

## CCOC(=O)Nc1cccc2c(Oc3ncccc3-c3ccnc(N[C@H]4CCCNC4)n3)c(C)ccc12 [G-1749]
AKT2
  inhibition at 1 µM: 6%
ALK2
  inhibition at 1 µM: 1%
Bmx
  inhibition at 1 µM: -4%
CK1_epsilon1
  inhibition at 1 µM: 37%
DCAMKL2
  inhibition at 1 µM: 3%
DMPK
  inhibition at 1 µM: 0%
DRAK1
  inhibition at 1 µM: 0%
DYRK4
  inhibition at 1 µM: 2.5%
GRK6
  inhibition at 1 µM: -1%
IRAK1
  inhibition at 1 µM: 9%
JNK3
  inhibition at 1 µM: 52.5%
LIMK1
  inhibition at 1 µM: 4.5%
LRRK2
  inhibition at 1 µM: -3.5%
MAPKAPK2
  inhibition at 1 µM: 7.5%
MAPKAPK3
  inhibition at 1 µM: 12.5%
MRCK_alpha
  inhibition at 1 µM: 4.5%
MYLK3(caMLCK)
  inhibition at 1 µM: 10.5%
PAK3
  inhibition at 1 µM: 6.5%
PASK
  inhibition at 1 µM: 4.5%
PKC_epsilon
  inhibition at 1 µM: 14.5%
PRK1
  inhibition at 1 µM: 0%
TNK2
  inhibition at 1 µM: 1%
ZIPK
  inhibition at 1 µM: 1%
eEF-2K
  inhibition at 1 µM: 5%

## CC#CC(=O)Nc1cccc2c(Oc3ncccc3-c3ccnc(N[C@H]4CCCNC4)n3)c(C)ccc12 [G-7658]
AKT2
  inhibition at 1 µM: 4%
ALK2
  inhibition at 1 µM: 0.5%
Bmx
  inhibition at 1 µM: -4.5%
CK1_epsilon1
  inhibition at 1 µM: 36%
DCAMKL2
  inhibition at 1 µM: 2%
DMPK
  inhibition at 1 µM: 1.5%
DRAK1
  inhibition at 1 µM: -4%
DYRK4
  inhibition at 1 µM: 1%
GRK6
  inhibition at 1 µM: 1.5%
IRAK1
  inhibition at 1 µM: 11.5%
JNK3
  inhibition at 1 µM: 51.5%
LIMK1
  inhibition at 1 µM: 15%
LRRK2
  inhibition at 1 µM: 8.5%
MAPKAPK2
  inhibition at 1 µM: 1%
MAPKAPK3
  inhibition at 1 µM: 8%
MRCK_alpha
  inhibition at 1 µM: 5%
MYLK3(caMLCK)
  inhibition at 1 µM: 4.5%
PAK3
  inhibition at 1 µM: 5%
PASK
  inhibition at 1 µM: 9.5%
PKC_epsilon
  inhibition at 1 µM: 9.5%
PRK1
  inhibition at 1 µM: -1.5%
TNK2
  inhibition at 1 µM: 2%
ZIPK
  inhibition at 1 µM: 0%
eEF-2K
  inhibition at 1 µM: 5%
